In patent publication EP4293034A1, “A NOVEL ACYLATED DERIVATE OF PHLORETIN AND ITS USE AS ANTIOXIDANT” (Consejo Superior de Investigaciones Científicas (CSIC), priority 2022, dated 2023):
≈ marks a conversion by molar mass, not a printed value. Like-named read-outs stand apart in the source and are kept apart here. Marks after values point to notes of the source that are not given here.

Experiments:
[1] = (*) data from Gonzalez-Alfonso et al, 2021, cited from earlier work; for EC50: EC50 ± SD, read-out: ABTS assay EC50; for ABTS assay TEAC: TEAC ± SD
[2] = (*) data from Gonzalez-Alfonso et al, 2021, cited from earlier work; for EC50: EC50 ± SD, read-out: DPPH assay EC50; for DPPH assay TEAC: TEAC ± SD
[3] = water, 25 °C; (*) data from Gonzalez-Alfonso et al, 2021; cited from earlier work
[4] = previously reported, Gonzalez-Alfonso et al, 2021; cited from earlier work
[5] = Aqueous solubility; format: physicochemical; settings: water, 25 °C, 72 h
Procedure: The compound was incubated at 25 °C in water (saturated conditions) during 3 days under orbital stirring (1000 rpm). Then, the sample was centrifuged. A volume of 200 µL of the supernatant solution was analysed by triplicate, in a 96-well plate, using a phloretin calibration curve in methanol (0-200 µg/mL). The absorbance was measured by UV spectrophotometry (Tecan Infinite M200) at 297 nm.

[6] = Antioxidant activity, ABTS assay; format: biochemical; settings: n = 3
Procedure: (§1) The capacity of the synthesized ester to reduce 2,2-diphenyl-1-picrylhydrazyl (DPPH) and the radical cation 2,2-azino-bis(3-ethylbenzothiazoline-6-sulfonic acid) diammonium salt (ABTS^·+) was assayed. (R)-Trolox was employed as antioxidant reference. Standard solutions with a concentration between 0 and 1000 µM for DPPH assay, and between 0 and 500 µM for ABTS assay, were prepared.

[7] = Antioxidant activity, DPPH assay; format: biochemical; settings: n = 3
Procedure: as §1

[8] = In vitro percutaneous absorption on Franz static diffusion cells; format: in vitro ADME; settings: pig skin model, 24 h exposure, Figure 5
Procedure: The study was carried out in vitro with pig biopsies placed on Franz static diffusion cells (3 mL, 1.86 cm^2 of exposed area, diameter: […], Lara-Spiral, Courtenon, France) in order to determine the distribution of active compound (API) at the different skin layers, after an exposure time of 24 hours. The pig skin, provided by the Department of Cardiology of the Hospital Clinic (Barcelona, Spain), is considered morphologically and functionally equivalent to human skin for percutaneous absorption studies. Ultra-pure water was employed as receptor fluid, and cells were placed in a thermostated water bath (32 °C) containing a magnetic stirring device to obtain the skin surface temperature at 32 ± 1 °C. The integrity of the skin samples was evaluated by measuring the transepidermal water loss (TEWL) with Tewameter TM300 (Courage & Khazaka, Cologne, Germany) considering correct TEWL values under 15 g m^-2 h^-1. […] The different samples to be analyzed (W, SC, E, D and FR) were extracted and/or diluted in methanol (Merck, Darmstadt, Germany). The phloretin, its corresponding monoglucoside and acylated monoglucoside concentrations were analyzed by HPLC, as previously described. […] The results are shown as mean values (expressed as µg/cm2) ± standard deviations. […]

[9] = TEAC ± SD, calculated from EC50 of the acyl derivative and EC50 of (R)-Trolox

SMILES	EC50 [1]	ABTS assay TEAC [1]	EC50 [2]	DPPH assay TEAC [2]	Solubility [3]	skin absorption (in words) [4]	Solubility [5]	EC50 ([6]; EC50 ± SD)	ABTS assay TEAC [6, 9]	EC50 ([7]; EC50 ± SD)	DPPH assay TEAC [7, 9]	percutaneous absorption, increase versus phloretin and its α-glucoside ([8]; listed as acyl-glucoside of phloretin)	percutaneous absorption, increase versus phloretin and its α-glucoside ([8]; listed as acylglucoside of phloretin)
O=C(CCc1ccc(O)cc1)c1c(O)cc(O[C@H]2O[C@H](CO)[C@@H](O)[C@H](O)[C@H]2O)cc1O [Phloretin 4'-O-α-D-(glucopyranoside), Phloretin 4'-O-α-D-Glucopyranoside]	16.9 ± 0.5 µM	0.64 ± 0.06	285 ± 20 µM	8.1 ± 0.6	–	–	–	–	–	–	–	–	–
O=C(CCc1ccc(O)cc1)c1c(O)cc(O)cc1O [Phloretin, 2',4',6'-trihydroxy-3-(4-hydroxyphenyl)-propiophenone]	11.7 ± 0.6 µM	0.45 ± 0.04	217 ± 14 µM	6.2 ± 0.4	23.2 ± 0.3* mg/L	the same absorption pattern, without significant differences	–	–	–	–	–	–	–
CCCCCCCCCCCC(=O)OC[C@H]1O[C@H](Oc2cc(O)c(C(=O)CCc3ccc(O)cc3)c(O)c2)[C@H](O)[C@@H](O)[C@@H]1O [phloretin 4'-O-(6-O-lauroyl)-α-D-glucopyranoside]	–	–	–	–	–	–	6.0 ± 0.2 µg/mL (≈ 9.7 µM)	14.7 ± 0.7 µM	0.47 ± 0.04	439 ± 13 µM	11.4 ± 0.8	approx. 3 fold	3 fold
